Measurements: PubChem BioAssay (NCI)
“And” between values parts separate entries of the source, which are not always exact repeats. Identical values can stand only once.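 Compound exposure: 48 hours, 5 concentrations, 96-well plates. The concentration for 50% growth inhibition is given as GI50. TGI is the concentration that stops growth completely.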

test system: MDA-MB-468 breast; assay: inhibition of tumour cell growth, NCI panel, 48 h

Which results are given for `CN1CCN(c2ccc(Nc3nc(NCCCNS(=O)(=O)c4ccccc4)c4sccc4n3)cc2)CC1`?
GI50: 11800 nM; TGI: 26.4 µM

Which results are given for `CCc1cnn2c(NCc3ccc[n+]([O-])c3)cc(N3CCCC[C@H]3CCO)nc12`?
GI50: < 10 nM and 2.21 nM; TGI: < 0.01 µM and 0.00588 µM

What does the source list for `C#CC(=O)Nc1cccc2c1cc(C)n2-c1nc2c(c(NCc3ccccc3)n1)CCCC2`?
GI50: 211 nM; TGI: 0.596 µM

How did the GI50 turn out when `O=Nc1c(-c2c(O)[nH]c3cc(Br)ccc23)[nH]c2ccccc12` was run?
The GI50 was 2000 nM.

What about the TGI of the same compound?
Its TGI is 4.93 µM.

How did the GI50 turn out when `COC1=C(C)C(=O)c2c(c(CCCl)c3n2CCC3OC(C)=O)C1=O` (configuration not stated) was run?
Its GI50 is 5010 nM.

And the TGI?
The TGI was 22.5 µM.

With `Cc1ccc2cccc(OC(=O)Nc3cccc(C(F)(F)F)c3)c2n1` as the compound, how does the GI50 read?
The GI50 was 3650 nM.

And the TGI?
The TGI was 12.9 µM.

`O=c1cnnc(N/N=C/c2ccccc2O)[nH]1` was tested. Which GI50 did it give?
Its GI50 is 265 nM.

And the TGI?
The TGI was 3.32 µM.

Which results are given for `CC1(C)N=C(N)N=C(N)N1c1ccc(OCCCNC(=O)Nc2cccc(S(=O)(=O)F)c2)c(Cl)c1`?
GI50: 15700 nM; TGI: > 100 µM

How did the GI50 turn out when `O=C1CC(c2ccccc2)Cc2nc3ccc(Br)cc3cc21` (configuration not stated) was run?
The GI50 was 2230 nM.

And the TGI?
The TGI was 7.94 µM.

How did the GI50 turn out when `C#Cc1cccc(Nc2ncnc3ccc(OCCCCNCCS(C)(=O)=O)cc23)c1` was run?
Its GI50 is 94 nM.

And the TGI?
The TGI was 0.666 µM.

Which results are given for `NC(=S)N/N=C1\c2ccccc2-c2c(F)c(F)c(F)c(F)c21`?
GI50: 2490 nM; TGI: 5.14 µM

With `Cn1cc(C2=C(c3cn(-c4ccccc4)c4ccccc34)C(=O)NC2=O)c2ccccc21` as the compound, how does the GI50 read?
Its GI50 is 7580 nM.

And the TGI?
Its TGI is greater than 25 µM.

Which results are given for `CN(C)CCCSc1ccccc1NC1=C(Cl)C(=O)C(Nc2ccccc2SCCCN(C)C)=C(Cl)C1=O`?
GI50: 1520 nM; TGI: 3.22 µM

With `COc1ccc(C(=NN=C(N)N)c2ccc(OC)cc2)cc1` as the compound, how does the GI50 read?
Its GI50 is 1710 nM.

And the TGI?
Its TGI is 4.71 µM.

Which results are given for `COc1ccc(C2CC(c3ccc(Nc4ccnc5cc(Cl)ccc45)cc3)=NN2C=O)cc1` (configuration not stated)?
GI50: 1000 nM; TGI: 6.84 µM

With `O=C(C=P(c1ccccc1)(c1ccccc1)c1ccccc1)CCl` as the compound, how does the GI50 read?
The GI50 was 268 nM.

What about the TGI of the same compound?
The TGI was 1.28 µM.

`CCCC(=O)NC(c1ccc2c(c1)OC(F)(F)O2)c1cc(C)c2cccnc2c1O` (configuration not stated) was tested. Which GI50 did it give?
The GI50 was 370 nM.

And the TGI?
The TGI was 2.21 µM.

Which GI50 does the source give for `COc1ccc(CCN(CC(=O)N(CC(N)=O)C2CCC[C@@H]2OCc2ccccc2)C(=O)CN(C(=O)CN(CCc2ccc(Cl)cc2)C(=O)CN(C(=O)CN(C)Cc2ccccc2F)[C@H](C)C2CCCCC2)[C@H](C)C2CCCCC2)cc1OC` (some centres not stated) here?
The GI50 was 941 nM.

What about the TGI of the same compound?
The TGI was 4.2 µM.

What does the source list for `COCCOC1=CC(=O)c2c(O)ccc(O)c2C1=O`?
GI50: 1270 nM; TGI: 2.78 µM

For `Cn1cc(-c2nc(-c3c[nH]c4ncccc34)cs2)c2ccccc21`, which GI50 is on record?
Its GI50 is 314 nM.

What about the TGI of the same compound?
The TGI was 0.82 µM.

For `CC(C)(C)CC(C)(C)c1ccc(O)c(Cc2ccc(Cl)cc2Cl)c1`, which GI50 is on record?
The GI50 was 1660 nM.

What about the TGI of the same compound?
The TGI was 3.08 µM.

What does the source list for `Clc1cc(Cl)c(OCCCCCCN2CCNCC2)c(Cl)c1`?
GI50: 2140 nM; TGI: 4.61 µM

How did the GI50 turn out when `CC(C)(C)c1cc(NC(=O)Nc2ccc(-c3cn4c(n3)sc3cc(OCCN5CCOCC5)ccc34)cc2)no1` was run?
Its GI50 is 3640 nM and 2550 nM and > 10000 nM.

And the TGI?
Its TGI is 12.2 µM and 14.2 µM and > 10 µM.

`CN(C)CC(=O)Nc1ccc2ncnc(Nc3ccc(Oc4cccc(C(F)(F)F)c4)c(Cl)c3)c2c1` was tested. Which GI50 did it give?
Its GI50 is 1280 nM.

What about the TGI of the same compound?
The TGI was 3.23 µM.

Which GI50 does the source give for `CC1(C)N=C(N)N=C(N)N1c1ccc(Cl)cc1` here?
Its GI50 is 873 nM.

And the TGI?
Its TGI is greater than 100 µM.

With `COc1cc(/C=C2\CCC/C(=C\c3ccc(O)c(OC)c3)C2=O)ccc1O` as the compound, how does the GI50 read?
The GI50 was 1460 nM.

And the TGI?
Its TGI is 3.48 µM.

Which GI50 does the source give for `Oc1c(Cl)cc(Cl)cc1/C=N/Nc1nnc(N/N=C/c2cc(Cl)cc(Cl)c2O)c2ccccc12` here?
Its GI50 is 337 nM.

And the TGI?
Its TGI is 1.88 µM.

Which results are given for `COc1ccc(NC2=C(I)C(=O)c3ncccc3C2=O)cc1`?
GI50: 1350 nM; TGI: 2.94 µM

With `N#Cc1c(NC(=O)c2ccc(F)cc2)sc2c1CCCC2` as the compound, how does the GI50 read?
Its GI50 is greater than 25000 nM.

And the TGI?
Its TGI is greater than 25 µM.

How did the GI50 turn out when `CC(=O)CC/C=C(\C)[C@H](O)[C@H](C)C(=O)O[C@H]1C[C@H](C)C=C2C=C[C@@]3(C)O[C@@H](O)CC(=O)[C@]3(C)[C@H]21` was run?
The GI50 was 454 nM.

What about the TGI of the same compound?
The TGI was 2 µM.

How did the GI50 turn out when `COc1ccc(/C=C2\COc3ccc(O)c(O)c3C2=O)c(OC)c1OC` was run?
The GI50 was 2180 nM.

And the TGI?
The TGI was 6.28 µM.

With `O=C(c1ccc(C(F)(F)F)c(Cl)c1)N(Cc1ccc(Cl)cc1)c1ccc(-c2cc(C(F)(F)F)[nH]n2)c(O)c1` as the compound, how does the GI50 read?
The GI50 was 928 nM.

And the TGI?
Its TGI is 3.91 µM.

Which results are given for `O=C1c2cccnc2C(=O)c2c1c(C(=O)OCCN1CCCCC1)c1ccccn21`?
GI50: 869 nM; TGI: 2.84 µM

How did the GI50 turn out when `COc1cc(/C=C/c2cc(/C=C/c3ccc(O)c(OC)c3)n(C(=O)Nc3ccccc3Cl)n2)ccc1O` was run?
Its GI50 is 264 nM.

What about the TGI of the same compound?
Its TGI is 0.748 µM.

Which results are given for `CC(C)(c1ccccc1)c1cc(O)c(C(C)(C)c2ccccc2)cc1O`?
GI50: 376 nM; TGI: 3.72 µM

With `COc1cc(N2C(=O)[C@H](c3ccccc3)C2c2ccc(SC)cc2)cc(OC)c1OC` (some centres not stated) as the compound, how does the GI50 read?
The GI50 was 27.1 nM.

What about the TGI of the same compound?
Its TGI is 0.0929 µM.

For `COC(=O)[C@]12CC[C@@H](C)[C@H](C)[C@@H]1C1=CC[C@@H]3[C@@]4(C)C[C@@H](OC(=O)/C=C/c5ccccc5)[C@H](O)[C@@](C)(CO)[C@@H]4[C@H](O)C[C@@]3(C)[C@]1(C)CC2`, which GI50 is on record?
The GI50 was 2540 nM.

And the TGI?
The TGI was 8.94 µM.

`CC(C)(C)c1cc(/C=N/NC(=O)c2ccccc2NC(=O)c2cccs2)c(O)c(C(C)(C)C)c1` was tested. Which GI50 did it give?
Its GI50 is 386 nM.

And the TGI?
Its TGI is 20.5 µM.

What does the source list for `COc1cccc(-c2cc(=O)c3cc(N4CCOCC4)ccc3[nH]2)c1`?
GI50: 927 nM; TGI: > 100 µM

How did the GI50 turn out when `CC(C)[C@@](O)(c1ccc2cc(OC(F)F)c(OC(F)F)cc2c1)c1cn[nH]n1` was run?
The GI50 was 12900 nM.

What about the TGI of the same compound?
The TGI was 47.4 µM.

How did the GI50 turn out when `C=CC(=O)N1C[C@@H]2CCOc3c(Cl)c(-c4c(O)cccc4F)c(F)c4ncnc(c34)N2C[C@H]1C` was run?
Its GI50 is 2330 nM.

What about the TGI of the same compound?
The TGI was 10.4 µM.

How did the GI50 turn out when `COC(=O)c1cc2oc(/C=C3/SC(=S)N(N)C3=O)cc2n1Cc1ccccc1` was run?
Its GI50 is 74400 nM.

And the TGI?
The TGI was greater than 100 µM.

What does the source list for `Cn1c(=O)nc2n(-c3ccc(Cl)cc3)c3cc(Cl)ccc3nc-2c1=O`?
GI50: 1590 nM; TGI: 3.07 µM

`COc1cc(CNCCN2C(=O)c3ccc4c5c(ccc(c35)C2=O)C(=O)N(CCNCc2cc(OC)c(OC)c(OC)c2)C4=O)cc(OC)c1OC` was tested. Which GI50 did it give?
Its GI50 is 123 nM.

And the TGI?
The TGI was 0.323 µM.

What does the source list for `COC(=O)c1ccccc1CC1Cc2cc3c(cc2C1=O)CCC3` (configuration not stated)?
GI50: 10600 nM; TGI: 42.1 µM

How did the GI50 turn out when `Cc1ccc(C=C2C(Cl)=C(Cl)C(Cl)=C2Cl)cc1` was run?
The GI50 was 189 nM.

And the TGI?
Its TGI is 0.573 µM.
